Results as given in patent US20220017863A1, “SIRT2-ABLATED CHIMERIC T CELLS” (H. Lee Moffitt Cancer Center and Research Institute, Inc., priority 2019, published 2022).
Entries after “also recorded” stand apart in the source; their conditions may differ.

What was measured:
human CD3+ T cells [1] = test: Seahorse extracellular flux analysis of CD3-stimulated human CD3+ T cells from healthy donors; type: cell-based; conditions: anti-CD3 plus inhibitor vs vehicle, 48 hr
Protocol: Human peripheral blood mononuclear cells (PBMC) were obtained from healthy donors by density gradient centrifugation using Ficoll-Paque™ PLUS Media (GE Healthcare). CD3^+ lymphocytes were negatively enriched using human Pan T cell isolation Kit™ (Miltenyi Biotec).
Extracellular acidification rates (ECAR) were measured using the Seahorse XF analyzer (Agilent). Glycolysis Stress Test (GST) and glycolytic rate assay (GRA) were performed according to kit manufacturer's instructions.
The day of the assay, 2×10^5 activated T cells were plated in Cell-Tak (Corning)-coated XF96 plates in XF media (XF RPMI Medium pH 7.4 containing 2 mM L-glutamine only for GST or supplemented with 10 mM glucose, 2 mM L-glutamine and 1 mM sodium pyruvate for GRA test, all from Agilent technologies) via centrifugation to ensure cell attachment. Cells were equilibrated for 1 hour in a non-CO2 incubator before starting the assay.
(§1) For GST, ECAR was measured under basal conditions and in response to 10 mM glucose, 1 μM oligomycin and 50 mM 2-DG successively to calculate basal glycolytic rate, glycolytic capacity (in response to oligomycin), and glycolytic reserve (glycolytic capacity−basal rate). For GRA, ECAR was measured under basal conditions and in response to 0.5 μM rotenone+0.5 μM antimycin A and 50 mM 2-DG successively to calculate basal glycolysis and compensatory glycolysis (in response to rotenone+antimycin A). Results were normalized to total protein quantified using Pierce™ BCA Protein Assay Kit (ThermoFisher Scientific).
Human peripheral blood mononuclear cells (PBMC) were obtained from healthy donors by density gradient centrifugation using Ficoll-Paque™ PLUS Media (GE Healthcare). CD3^+ lymphocytes were negatively enriched using human Pan T cell isolation Kit™ (Miltenyi Biotec). […].
Extracellular acidification rate (ECAR) and oxygen consumption rate (OCR) were measured using the Seahorse XF analyzer (Agilent technologies). Glycolysis Stress Test (GST), glycolytic rate assay (GRA) and mitochondrial stress test (MST) were purchased from Agilent technologies and performed according to the kit manufacturer's instructions. […]
For GST, ECAR and OCR were measured under basal conditions and in response to 10 mM glucose, 1 μM oligomycin and 50 mM 2-DG successively to calculate basal glycolytic rate, glycolytic capacity (in response to oligomycin), and glycolytic reserve (glycolytic capacity basal rate).
For GRA, ECAR and OCR were measured under basal conditions and in response to 0.5 μM roteone/antimycin A and 50 mM 2-DG successively to calculate basal glycolysis and compensatory glycolysis (in response to rotenone/antimycin A).

human TILs = test: Seahorse extracellular flux analysis of CD3-stimulated human TILs from NSCLC patients; type: cell-based; conditions: anti-CD3 plus AGK2 vs vehicle, 48 hr
Protocol: Human tumor infiltrating lymphocytes (hTILs) samples isolated from tumor biopsies of patients with nonsmall cell lung cancer (NSCLC) were generously provided by Dr. Antonia lab (Moffitt Cancer Center). All human samples remained totally de-identified and no Institutional Review Board (IRB) approval was needed.
hTILs were maintained in RPMI 1640 Medium, supplemented with 10% human AB serum (Valley Biomedical, Inc.), 1 mM Hepes (Sigma-Aldrich), 1% P/S (Thomas Scientific Inc), 50 μg/ml Gentamicin (ThermoFisher Scientific), 50 μM […] (ThermoFisher Scientific) and 6000 U/ml of recombinant human IL-2 (Peprotech).
Extracellular acidification rates (ECAR) were measured using the Seahorse XF analyzer (Agilent). […]
as §1, with “Scientific). […]” for “Scientific).”

human CD3+ T cells [2] = test: IFN-γ ELISPOT on human CD3+ T cells from healthy donors; type: cell-based; conditions: inhibitor vs vehicle, 48 hr
SIRT1 = target: T1, SIRT1 (Homo sapiens, UniProt Q96EB6); conditions: at 10-fold higher levels than the SIRT2 IC50; cited from earlier work
T1 sequence (Q96EB6 1-747): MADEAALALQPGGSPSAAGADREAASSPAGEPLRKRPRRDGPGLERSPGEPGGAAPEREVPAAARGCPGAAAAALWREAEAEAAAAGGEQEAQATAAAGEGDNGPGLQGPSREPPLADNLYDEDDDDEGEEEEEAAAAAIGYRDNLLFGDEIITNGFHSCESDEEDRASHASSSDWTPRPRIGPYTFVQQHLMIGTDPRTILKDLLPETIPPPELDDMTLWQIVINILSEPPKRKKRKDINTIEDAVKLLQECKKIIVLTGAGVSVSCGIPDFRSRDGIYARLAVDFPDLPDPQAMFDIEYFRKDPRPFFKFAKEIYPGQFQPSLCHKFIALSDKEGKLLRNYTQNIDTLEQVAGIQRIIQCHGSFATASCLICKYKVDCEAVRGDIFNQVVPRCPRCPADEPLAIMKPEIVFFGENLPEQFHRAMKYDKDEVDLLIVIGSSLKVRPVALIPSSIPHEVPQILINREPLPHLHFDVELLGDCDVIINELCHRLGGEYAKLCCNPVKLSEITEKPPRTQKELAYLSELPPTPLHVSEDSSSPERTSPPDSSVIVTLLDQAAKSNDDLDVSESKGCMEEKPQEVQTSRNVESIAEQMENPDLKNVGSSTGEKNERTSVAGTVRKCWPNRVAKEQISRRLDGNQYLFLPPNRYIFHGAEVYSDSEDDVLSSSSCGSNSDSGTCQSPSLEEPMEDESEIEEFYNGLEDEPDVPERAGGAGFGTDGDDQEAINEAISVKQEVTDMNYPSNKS

N#C/C(=C/c1ccc(-c2cc(Cl)ccc2Cl)o1)C(=O)Nc1cccc2ncccc12 [AGK2]
OxPhos (human CD3+ T cells [1]): increased
aerobic glycolysis (ECAR/PER) (human CD3+ T cells [1]): increases; also recorded: augments
OxPhos (OCR) (human TILs; human TILs from 5 NSCLC patients): increased
aerobic glycolysis (ECAR) (human TILs; human TILs from NSCLC patients, 5 patient samples): increases
IFN-γ production (effector function) (human CD3+ T cells [2]): increases; also recorded: augments
effect on SIRT1 (SIRT1): minimally affects
